Source: patent US20060078622A1, “Pharmaceutical formulations containing microparticles or nanoparticles of a delivery agent” (priority 2004, published 2006)
Values belong to the molecule of their own block, whether it stands above or below them.

Experiments:
[1] = acid and salts; cited from earlier work
[2] = Particle size determination by laser diffraction (Malvern Mastersizer 2000); assay type: physicochemical
Description: The terms “diameter” and “median particle size” are generally used to refer to the dimensions of particles, micro-beads, and granules. The “median particle size” or “diameter” was determined as follows for Examples 8, 9, 10.
The Malvern Mastersizer 2000 determines particle size by laser diffraction and model fitting. A well-dispersed sample in any two-phase system (e.g., powders, suspensions, or emulsions) is introduced into the path of a He—Ne laser focused with a lens of a length suitable for particle sizes present in the sample. The scattering pattern of particles in the laser path is measured by an array of detectors, with each detector measuring data from a particular range of angles.
The Malvern apparatus assumes that the particles being measured are perfect spheres. For non-spherical particles the resulting particle size distribution may be different from those obtained by methods based on others principles. The electronic measurements will often have to be accompanied by microscopic investigation to determine the type of particles being investigated. For irregularly shaped particles, the particle size data obtained from Mastersizer 2000 will be interpreted as the diameter of an imaginary sphere that is equivalent in volume to the measured particle. (Note: d(0.1) is the size of particle for which 10% of the sample is below this size, d(0.5) is the size of particle for which 50% of the sample is below this size, and d(0.9) is the size of particle for which 90% of the sample is below this size.
Generally, this apparatus measures one dimension of a, e.g., particle as it travels past a laser; i.e., it measures the length of a straight line through the particle. […] However, a measurement is taken of a number of particles and a median diameter or size is calculated. Thus, “size” or “diameter” figures are estimates of the median “size” or “diameter” of particles. Alternatively, “diameter” or “size” was measured by a sieve method described in Example 1. “Diameter” should not be read to necessarily imply a spherical shape or a circular dimension, though in certain embodiments, e.g., particles may have rounded edges or generally spherical shapes.
(§1) SNAD was screened through a 35 mesh Tyler standard sieve. The SNAD was milled with a Glen Mills, Model S100 centrifugal ball mill (Clifton, N.J.) equipped with a 250 mL stainless steel grinding jar and 30 mm (440 c) diameter stainless steel balls was used. The process parameters investigated were (1) number of balls used, (2) duration of milling, (3) milling speed, and (4) milling jar total charge. A Malvern Mastersizer 2000 equipped with a Scirocco 2000 dry accessory was used for particle size determination. A Kratos XRD 6000 (version 4.1) X-ray powder diffractometer scanning over the 2θ range 5-40° 2θ was used for monitoring crystallinity changes. The diverging, scattering, and receiving slits were 1°, 1°, and 0.3 mm respectively. A Brinkmann 737 KF coulometer was used for moisture content determination while a Quantachrome Nova 3000 Series Surface Area Analyzer was used for specific surface area determination.

[3] = in vivo; cited from earlier work
[4] = X-ray powder diffraction and Karl Fischer moisture content after milling; assay type: physicochemical; details: ball milled
Description: as §1, with “The diverging, scattering, and receiving slits were 1°, 1°, and 0.3 mm respectively.” left out

[5] = ball milled, milling time of 120 minutes

Structure (SMILES): O=C(O)CCCCCCCNC(=O)c1cc(Cl)ccc1O [5 CNAC acid, N-(5-chlorosalicyloyl)-8-aminocaprylic acid]
water solubility [1]: very water soluble

particle size d(0.5) ([2]; micronized, 2 balls at 200 rpm for 120 minutes): 7.574 μm
Structure (SMILES): O=C([O-])CCCCCCCNC(=O)c1ccccc1O.[Na+] [SNAC, monosodium salt of N-(8-[2-hydroxybenzoyl]-amino)caprylic acid]

Structure (SMILES): O=C(O)CCCCCCCCCNC(=O)c1ccccc1O [SNAD acid, N-(10-[2-hydroxybenzoyl]-amino) decanoic acid]
absorbed by the gastro-intestinal tract [3]: greater than 90%

crystallinity changes on milling (powder X-ray diffraction) [4]: did not result in crystallinity changes
particle size d(0.9) ([2]; ball milled at 300 rpm): 62.9 μm
particle size d(0.1) ([2]; ball milled, 2 balls): 1.1 μm
particle size d(0.5) ([2]; ball milled, 2 balls): 12.0 μm
particle size d(0.9) ([2]; ball milled, 2 balls): 154.3 μm
particle size d(0.1) [2, 5]: 2.0 μm
particle size d(0.5) [2, 5]: 15.4 μm
particle size d(0.9) [2, 5]: 62.9 μm
particle size d(0.1) ([2]; pre-screened (unmilled)): 1.6 μm
particle size d(0.5) ([2]; pre-screened (unmilled)): 10.5 μm
particle size d(0.9) ([2]; pre-screened (unmilled)): 314.9 μm
Structure (SMILES): O=C([O-])CCCCCCCCCNC(=O)c1ccccc1O.[Na+] [SNAD, monosodium salt of N-(10-[2-hydroxybenzoyl]-amino)decanoic acid]
changes in moisture content on milling (Karl Fischer) [4]: no significant changes in moisture content
